Measurements as given in patent US9266857B2, “Bicyclic AZA compounds as muscarinic M1 receptor agonists” (Heptares Therapeutics Limited, priority 2012, dated 2016).

Legend:
[1] = target: T1, human muscarinic M1 receptor (Homo sapiens, UniProt P11229); assay: Alphascreen Surefire phospho-ERK1/2 functional assay, M1; assay type: cell-based
T1 construct: expressed in transfected cells
T1 sequence (P11229 1-460): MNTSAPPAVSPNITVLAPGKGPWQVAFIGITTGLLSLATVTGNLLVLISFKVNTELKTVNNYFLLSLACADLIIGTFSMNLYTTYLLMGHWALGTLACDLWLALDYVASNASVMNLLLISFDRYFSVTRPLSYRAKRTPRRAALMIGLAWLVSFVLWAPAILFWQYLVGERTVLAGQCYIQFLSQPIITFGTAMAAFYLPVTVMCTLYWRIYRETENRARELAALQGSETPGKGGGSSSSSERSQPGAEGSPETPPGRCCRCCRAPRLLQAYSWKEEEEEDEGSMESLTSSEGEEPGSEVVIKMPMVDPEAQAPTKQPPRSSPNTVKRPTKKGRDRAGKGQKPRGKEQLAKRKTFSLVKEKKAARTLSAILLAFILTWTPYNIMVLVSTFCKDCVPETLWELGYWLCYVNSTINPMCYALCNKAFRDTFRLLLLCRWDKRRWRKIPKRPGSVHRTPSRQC
Method: (§1) ERK1/2 phosphorylation is a downstream consequence of both Gq/11 and Gi/o protein coupled receptor activation, making it highly suitable for the assessment of M1, M3 (Gq/11 coupled) and M2, M4 receptors (Gi/o coupled), rather than using different assay formats for different receptor subtypes. CHO cells stably expressing the human muscarinic M1, M2, M3 or M4 receptor were plated (25K/well) onto 96-well tissue culture plates in MEM-alpha+10% dialysed FBS. Once adhered, cells were serum-starved overnight. Agonist stimulation was performed by the addition of 5 μL agonist to the cells for 5 min (37° C.). Media was removed and 50 μL of lysis buffer added. After 15 min, a 4 μL sample was transferred to 384-well plate and 7 μL of detection mixture added. Plates were incubated for 2 h with gentle agitation in the dark and then read on a PHERAstar plate reader.
(§2) pEC50 and Emax figures were calculated from the resulting data for each receptor subtype.

[2] = target: T2, human muscarinic M2 receptor (Homo sapiens, UniProt P08172); assay: Alphascreen Surefire phospho-ERK1/2 functional assay, M2; assay type: cell-based
T2 construct: expressed in transfected cells
T2 sequence (P08172 1-466): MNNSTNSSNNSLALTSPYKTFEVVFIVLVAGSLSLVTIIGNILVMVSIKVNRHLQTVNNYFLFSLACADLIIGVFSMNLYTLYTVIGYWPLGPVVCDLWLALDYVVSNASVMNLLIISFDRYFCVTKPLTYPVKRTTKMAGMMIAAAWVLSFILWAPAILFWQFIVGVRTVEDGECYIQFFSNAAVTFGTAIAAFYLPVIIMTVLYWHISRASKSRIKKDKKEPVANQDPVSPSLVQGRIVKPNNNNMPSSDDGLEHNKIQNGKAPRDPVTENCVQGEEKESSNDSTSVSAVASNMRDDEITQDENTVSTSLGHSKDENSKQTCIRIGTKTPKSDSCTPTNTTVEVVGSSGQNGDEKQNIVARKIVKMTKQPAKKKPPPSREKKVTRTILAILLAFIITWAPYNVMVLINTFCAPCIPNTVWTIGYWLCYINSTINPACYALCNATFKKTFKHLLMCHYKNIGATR
Method: as §1, §2

[3] = target: T3, human muscarinic M3 receptor (Homo sapiens, UniProt P20309); assay: Alphascreen Surefire phospho-ERK1/2 functional assay, M3; assay type: cell-based
T3 construct: expressed in transfected cells
Method: as §1, §2

[4] = target: T4, human muscarinic M4 receptor (Homo sapiens, UniProt P08173); assay: Alphascreen Surefire phospho-ERK1/2 functional assay, M4; assay type: cell-based
T4 construct: expressed in transfected cells
T4 sequence (P08173 1-479): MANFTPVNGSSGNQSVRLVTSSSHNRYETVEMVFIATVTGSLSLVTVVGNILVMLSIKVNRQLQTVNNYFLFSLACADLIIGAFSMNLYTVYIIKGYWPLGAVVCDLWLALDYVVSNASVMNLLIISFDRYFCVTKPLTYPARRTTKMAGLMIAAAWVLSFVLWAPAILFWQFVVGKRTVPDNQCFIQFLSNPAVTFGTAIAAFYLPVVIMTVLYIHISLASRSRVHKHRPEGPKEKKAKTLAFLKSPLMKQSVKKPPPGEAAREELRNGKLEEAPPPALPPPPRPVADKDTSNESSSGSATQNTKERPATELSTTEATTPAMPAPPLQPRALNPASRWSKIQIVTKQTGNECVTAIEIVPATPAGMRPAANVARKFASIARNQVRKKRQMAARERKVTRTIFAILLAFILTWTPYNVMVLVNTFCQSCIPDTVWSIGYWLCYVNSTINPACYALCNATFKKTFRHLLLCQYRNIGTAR
Method: as §1, §2

[5] = test system: scopolamine-induced amnesia; assay: Passive avoidance, scopolamine-induced amnesia; assay type: in vivo
Method: Studies were carried out as described previously by Foley et al., (2004) Neuropsychopharmacology. In the passive avoidance task scopolamine administration (1 mg/kg, i.p.) at 6 hours following training rendered animals amnesic of the paradigm. A dose range of 3, 10, and 30 mg/kg (po) free base, administered 90 minutes prior to the training period via oral gavage, was examined.

[6] = test system: fEPSPs in the CA1 region of rat hippocampal slices; assay: CA1 cell firing, fEPSPs in hippocampal slices; assay type: cell-based; conditions: CA1 fEPSP amplitude, 6 slices averaged
Method: Rat hippocampal slices of 400 μm thickness were cut in chilled (<4° C.) artificial cerebrospinal fluid (aCSF, composition in mM: NaCl 127, KCl 1.6, KH2PO4 1.24, MgSO4 1.3, CaCl2 2.4, NaHCO3 26 and D-glucose 10) using vibratome. Slices were maintained in oxygenated (95% O2/5% CO2) aCSF at room temperature for at least 1 hr prior to electrophysiological recording, after which they were transferred to an interface chamber and constantly perfused with warmed (30° C.) oxygenated aCSF at a flow rate of 1.5-3 ml.min-1. Schaffer collaterals were then stimulated (1-20 V, 0.1 ms pulse width, 0.033 Hz) with a concentric bipolar electrode to evoke field excitatory post synaptic potentials (fEPSPs) recorded from the stratum radiatum of the CA1 region. Experiments were performed to examine the effect of compound compared to 1 μM carbachol (CCh), on the amplitude of fEPSPs in the CA1 region of rat hippocampal slices. 1 μM CCh was initially applied until steady-state, followed by wash, before performing a five point cumulative concentration-response to compound. Each compound was tested on 6 slices and results averaged. Drug preparation; compound was dissolved in 100% DMSO at a stock concentration of 30 mM, and diluted according to requirements, carbamoylcholine chloride (CCh) was purchased from Sigma (Cat#C4382) and dissolved at a stock concentration of 1 mM in ddH2O.

T3 sequence (P20309 whole entry): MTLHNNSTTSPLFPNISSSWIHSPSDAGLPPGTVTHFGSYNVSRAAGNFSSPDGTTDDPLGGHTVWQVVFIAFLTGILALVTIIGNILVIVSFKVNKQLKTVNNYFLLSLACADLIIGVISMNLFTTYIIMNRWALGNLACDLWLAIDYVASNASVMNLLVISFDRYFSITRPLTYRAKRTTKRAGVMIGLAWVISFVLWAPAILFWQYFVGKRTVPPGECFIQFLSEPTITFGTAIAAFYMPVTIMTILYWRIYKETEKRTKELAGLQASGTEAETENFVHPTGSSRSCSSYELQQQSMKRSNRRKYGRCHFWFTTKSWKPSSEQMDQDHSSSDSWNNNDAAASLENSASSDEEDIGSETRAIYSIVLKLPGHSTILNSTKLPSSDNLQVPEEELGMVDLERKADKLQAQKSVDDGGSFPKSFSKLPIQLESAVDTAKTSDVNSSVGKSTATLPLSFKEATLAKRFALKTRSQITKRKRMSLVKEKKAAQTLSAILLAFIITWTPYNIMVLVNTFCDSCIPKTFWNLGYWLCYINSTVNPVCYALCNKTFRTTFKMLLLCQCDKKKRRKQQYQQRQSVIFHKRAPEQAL

CCOC(=O)N1CCC2(CC(N3CCC(C(=O)NC4(C)CCC4)CC3)C2)C1 (single isomer, unassigned) [Example 9 - Isomer 2, ethyl 2-{4-[(1-methylcyclobutyl)carbamoyl]piperidin-1-yl}-6-azaspiro[3.4]octane-6-carboxylate] was tested, and the EC50 ([1]; CHO cells stably expressing human M1, phospho-ERK1/2, read-out: pEC50 M1 (converted)) was 0.0363 µM, the Emax ([1]; CHO, read-out: % Emax cf. ACh, M1, CHO cells stably expressing human M1, relative to ACh) was 100% and the EC50 ([2]; CHO cells stably expressing human M2, phospho-ERK1/2, read-out: pEC50 M2 (converted)) was greater than 20 µM. It also gave an Emax ([2]; CHO, read-out: % Emax cf. ACh, M2) of 15%, an EC50 ([3]; CHO cells stably expressing human M3, phospho-ERK1/2, read-out: pEC50 M3 (converted)) greater than 20 µM and an Emax ([3]; CHO, read-out: % Emax cf. ACh, M3) of 9%. For the same molecule, the EC50 ([4]; CHO cells stably expressing human M4, phospho-ERK1/2, read-out: pEC50 M4 (converted)) was 0.182 µM, the Emax ([4]; CHO, read-out: % Emax cf. ACh, M4, CHO cells stably expressing human M4, relative to ACh) was 66% and the “reversal of scopolamine-induced amnesia of the passive avoidance paradigm” value ([5]; 3, 10 and 30 mg/kg po) was “reverse scopolamine-induced amnesia of the paradigm in a dose-dependent manner”. For the same molecule, the ED50 ([5]; po, 90 minutes prior to training, scopolamine 1 mg/kg i.p., read-out: approximate ED50, reversal of scopolamine-induced amnesia) was roughly 10 mg/kg and the EC50 [6] was 5.7 µM.
